US20260355318A1, “MOLECULAR MACHINES FOR TREATMENT OF CANCER, FUNGAL INFECTIONS, OR BACTERIAL INFECTIONS” (priority 2022, published 2026)
Read-outs that look alike come from different tables or passages of the source.

Assays:
E. coli [1] = test: MIC, E. coli; format: cell-based, Escherichia coli BW25113; conditions: Escherichia coli, read-out: MIC of MM
C. albicans = test: In vivo G. mellonella model, C. albicans infection (survival, fungal burden); parameters: species or system Galleria mellonella; conditions: C. albicans-infected G. mellonella, 1×MIC
Description: The in vivo antifungal activity of MMs was assessed in G. mellonella (Li et al., 2013; (Slater et al., 2011). G. mellonella were acquired from a commercial supplier (rainbowmealworms.net) in their final instar larval stage. Worms of similar size (~0.3 g), responsive to touch, and displaying no signs of melanization were selected. C. albicans (~10^5 CFU mL^−1) and A. fumigatus conidia (~104 conidia mL^−1) suspensions were prepared in PBS as previously described. The fungal inoculum (5 μL) was injected into the last left proleg of the worms with a Hamilton syringe. Thirty minutes after infection, MM and/or antifungal agents (1×MIC, Table 2) diluted in sterile water were injected similarly to the right proleg. […] After 30 min, worms in the irradiated treatment groups were transferred to 24-well plates (Corning-Costar Corp., Corning, NY, USA) and irradiated with 405-nm light (87.6 J cm^−2). Worms were incubated in sterile Petri dishes at 30 ° C in the dark. Live and dead worms were scored each day for 7 days. Melanized or unresponsive worms were considered dead.
Fungal load was assessed in a separate group of similarly treated worms 48 h after infection. Only healthy larvae (four worms per treatment group) with no melanization spots were used. […] After 48 h at 30 ° C (C. albicans) or 7 days at 28 ° C (A. fumigatus), colonies were counted to determine CFU per mg of larvae.

E. coli [2] = test: Extracellular ATP, E. coli; format: cell-based, Escherichia coli; conditions: 1×MIC
Description: Intracellular content leakage following treatment with MMs was determined by quantifying extracellular ATP (O'Neill et al, 2004). Following irradiation in the presence of different concentrations of MM 1, MM 5, and MM 6, or 1% DMSO, E. coli cells were centrifuged at 13,000 g for 5 min. Supernatants were recovered and stored at −20 ° C for ATP analysis. ATP analysis was conducted using the luminescence-based BacTiter-Glo™ assay (Promega) per the manufacturer's instructions. Nisin was used as a positive control. The levels of ATP in supernatants were derived via a standard curve of ATP standards from 1 nM to 1 μM. Luminescence measurements of ATP standards and culture supernatants were measured in triplicate on a microplate reader (BioTek Instruments Inc, Winooski, VT, USA). Results were expressed as relative light units (RLU) corrected for […] in the absence of cells.

[3] = test system: persister cells of P. aeruginosa; test: Persister eradication, P. aeruginosa; format: cell-based, Pseudomonas aeruginosa; conditions: 1×MIC, 405 nm
E. coli [4] = test: Antibacterial activity of pre-irradiated MM 1; format: cell-based, Escherichia coli; conditions: pre-irradiation 25 min
Description: Influence of MM pre-irradiation on the inactivation of E. coli. Top: (1) To test the influence of pre-irradiating MMs on their antibacterial effects, MM 1 was added to a Petri dish containing PBS (final concentration of 8 μM) and irradiated for 25 min at 146 mW cm^−2 with 405 nm light. Cells were then added to an OD of ≈0.02, incubated in the dark for 30 min and then irradiated for up to 10 min at 146 mW cm^−2 with 405 nm light; (2) Independently, MM 1 was added to a Petri dish containing PBS (final concentration of […]), cells were then added to an OD600 of ≈0.02, incubated in the dark for 30 min and then irradiated for up to 10 min at 146 mW cm^−2 with 405 nm light. Bottom: Time-dependent reduction in colony-forming units (expressed as the logarithm of the ratio between the cell number at every time point and the cell number at time zero) of cells treated with pre-irradiated MM 1 or non-irradiated MM 1.

[5] = E. coli, Table 9, 405 nm light 43.8 J cm^−2

Row | SMILES | MIC (E. coli [1]; E. coli BW25113, 405 nm light 43.8 J cm^−2) [µM] | MIC (E. coli [1]; [5]) [µM] | time by which all worms died (C. albicans) [days] | extracellular levels of ATP (E. coli [2]) | time to reduce persister cells to limit of detection [3] [min] | antibacterial activity after pre-irradiation (E. coli [4])
1 | C[C@@H]1Cc2ccc3ccccc3c2/C1=C1\c2ccccc2Sc2cc(NCCN(C)C)ccc21 [MM 1, N^1N^1-dimethyl-N^2-(9-(2-methyl-2,3-dihydro-1H-cyclopenta[a]naphthalen-1-ylidene)-9H-thioxanthen-3-yl) ethane-1,2-diamine] | 1.25 | 1.25 | ≤ 3 | up to 1.2×10^−7 moles | 2 | does not lead to loss of MM antibacterial activity
2 | C[C@@H]1Cc2ccc3ccccc3c2/C1=C1\c2ccccc2Sc2cc(NCCN)ccc21 (racemic) [MM 6, N^1-(9-(2-methyl-2,3-dihydro-1H-cyclopenta[a]naphthalen-1-ylidene)-9H-thioxanthen-3-yl)ethane-1,2-diamine] | – | 2.5 | – | – | – | –
